pKd: −log10 of the molar value. “And” between values parts separate entries of the source, which are not always exact repeats. Equal entries are not always repeated.
Legend:
[1] = molecular target: T1, cell surface folate receptors (Homo sapiens, UniProt P15328); assay: Affinities of FITC-EDA-folate for cell surface folate receptors on KB cells; assay type: binding
T1 construct: KB cells overexpressing the receptor; endogenous in cells; host or cells: KB cells
Experimental: To determine the affinities of EDA-folate for cell surface folate receptors, the α- and γ-isomers were labeled with the fluorophore FITC and incubated with KB cells overexpressing the receptor. […] The low level of non-specific uptake observed with both isomers was probably due to the hydrophobicity of the FITC conjugates.

[2] = Storage stability of pteroylazide 27; assay type: physicochemical
Excerpt: The known impurities include ~4% pteroic acid 10, ~2% of the aniline (PteNH2) apparently resulting from Curtius rearrangement of 27, ~2% of pteroylamide (PteCO--NH2 11); and <1% of folic acid 1. […] Unlike some acyl azides, pteroylazide 27 is quite stable; samples of the lemon-yellow solid may be stored in the dark in a freezer for at least 12 months without appreciable decomposition.

carboxypeptidase G [3] = assay: Carboxypeptidase G enantiospecific hydrolysis of folic acid derivatives (HPLC of released pteroic acid); assay type: biochemical; conditions: Tris buffer with ZnCl2, 37° C., 2 h, pyrofolates and monoesters first hydrolysed in 0.25 M NaOH, error about ±2-3%
Experimental: Since it had been previously observed that guanidine bases are capable of racemizing acylated glutamates (under more forcing conditions than were employed in the reactions listed in Table 2), the optical purity of the folic acid 1 (=25a) and several of its derivatives which had been produced was evaluated. […] In order to assay the pyrofolates 8 and 9 as well as the α- and γ-monoesters of folic acid L-33a and L-33c, an initial mild basic hydrolysis was required prior to the enzyme assay. […] Control reactions on synthetic D-1=25a and DL-1=25a (Table 3, Entries 3,4) serve to confirm the error limits of the enzymatic method at about ±2-3%.
Determination of optical purity of folate derivatives listed in Table 3 using enzymatic hydrolysis with carboxypeptidase G:30:
The folic acid derivative (~2.5 mg) was dissolved in 1 mL Tris buffer containing 20 μg ZnCl2 and 50 microunit enzyme (Sigma Chemical Company) was added. The solution was incubated at 37° C. for 2 h. A 20 μL sample was tested by HPLC on a […] MICROSORB C-18 reverse phase column (Eluent A: 5 mM phosphate buffer; Eluent B: acetonitrile; flow rate: 1 mL/min; gradient: 0-5 min, 5% B, 10-15, 25% B). Folic acid was eluted at 4.1 min, pteroic acid at 10.6 min, methotrexate at 10.8 min, and amino-N10-methyl pteroic acid at 11.9 min. Peak area was used as the standard for analysis.
For folate derivatives, ~5 mg was first dissolved in 1 mL 0.25 M NaOH and incubated at room temperature for 1 h. Then the solution was acidified by 1 M HCl until precipitation. After centrifugation, washing, and drying, the ~2.5 mg yellow pellet was dissolved in 1 mL Tris buffer and reacted with enzyme under the conditions described above.

carboxypeptidase G [4] = conditions: footnote c of Table 3; cited from earlier work

T1 sequence (P15328 25-257): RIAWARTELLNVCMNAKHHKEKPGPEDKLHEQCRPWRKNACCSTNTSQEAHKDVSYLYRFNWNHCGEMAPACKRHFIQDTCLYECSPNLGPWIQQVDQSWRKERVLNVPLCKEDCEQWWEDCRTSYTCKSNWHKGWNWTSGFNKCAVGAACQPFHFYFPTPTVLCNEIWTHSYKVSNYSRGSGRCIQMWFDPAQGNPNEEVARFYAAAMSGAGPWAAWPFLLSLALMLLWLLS

SMILES	% Hydrolysis (carboxypeptidase G [3])	also measured
Nc1nc(O)c2nc(CNc3ccc(C(=O)N[C@@H](CCC(=O)NCCNC(=S)Nc4ccc5c(c4)C(=O)OC54c5ccc(O)cc5Oc5cc(O)ccc54)C(=O)O)cc3)cnc2n1 [FITC-EDA-folate(γ)]		pKd ([1]; KB cells overexpressing the receptor, read-out: concentration required to reach 50% maximal binding): 8.80
[N-]=[N+]=NC(=O)c1ccc(NCc2cnc3nc(N)[nH]c(=O)c3n2)cc1 [Compound 27, Pteroylazide]		shelf life ([2]; room temperature, protected from light): at least a month; HPLC profile after exposure to light ([2]; samples exposed to light (darken appreciably)): not substantially degraded; storage time without appreciable decomposition ([2]; solid, in the dark in a freezer): at least 12 months
Nc1nc2ncc(CNc3ccc(C(=O)N[C@@H](CCC(=O)O)C(=O)NCCNC(=S)Nc4ccc5c(c4)C(=O)OC54c5ccc(O)cc5Oc5cc(O)ccc54)cc3)nc2c(=O)[nH]1 [α-isomer of FITC-EDA-folate]		affinity for the cell surface receptors ([1]; KB cells overexpressing the receptor): virtually no affinity
CC(C)=CCOC(=O)[C@H](CCC(=O)O)NC(=O)c1ccc(NCc2cnc3nc(N)[nH]c(=O)c3n2)cc1 [Compound L-33c]	85.9% and 96.7%	
Nc1nc2ncc(CN(C(=O)C(F)(F)F)c3ccc(C(=O)N4C(=O)CCC4C(=O)O)cc3)nc2c(=O)[nH]1 (centres unmarked) [Compound 8, N10-Trifluoroacetylpyrofolic acid]	49.5%	
Nc1nc2ncc(CNc3ccc(C(=O)N[C@H](CCC(=O)O)C(=O)O)cc3)nc2c(=O)[nH]1 [Compound D-25a]	3.0%	
COC(=O)CC[C@H](NC(=O)c1ccc(NCc2cnc3nc(N)[nH]c(=O)c3n2)cc1)C(=O)O [Compound L-33a, Tetramethylguanidinium (L)-methyl folate (γ)]	96.8%	
Nc1nc2ncc(CNc3ccc(C(=O)NC(CCC(=O)O)C(=O)O)cc3)nc2c(=O)[nH]1 (racemic) [D, L-25a]	52.3%	
CN(Cc1cnc2nc(N)nc(N)c2n1)c1ccc(C(=O)N[C@H](CCC(=O)O)C(=O)O)cc1 [Compound D-34d]		hydrolysis by carboxypeptidase G (carboxypeptidase G [4]): not to be hydrolyzed
Nc1nc2ncc(CNc3ccc(C(=O)N[C@@H](CCC(=O)O)C(=O)O)cc3)nc2c(=O)[nH]1 [Compound L-1, Folic acid]	96.7%	competition with the receptor binding of FITC-EDA-folate(γ) ([1]; excess folic acid in the incubation medium, KB cells): effectively competed; % Hydrolysis (carboxypeptidase G [3]; listed as L-25a): 98.4% and 98.6%
CN(Cc1cnc2nc(N)nc(N)c2n1)c1ccc(C(=O)N[C@@H](CCC(=O)O)C(=O)O)cc1 [Compound L-34d, L-methotrexate, reference compound]	96.1% and 99.2%	
COC(=O)CCC(NC(=O)c1ccc(NCc2cnc3nc(N)[nH]c(=O)c3n2)cc1)C(=O)O (racemic) [DL-33a, (DL)-methyl folate (γ)]	54.4%	
Nc1nc2ncc(CNc3ccc(C(=O)N4C(=O)CCC4C(=O)O)cc3)nc2c(=O)[nH]1 (centres unmarked) [Compound 9, Pyrofolic acid]	51.7%	

Source: US6291673A, “Folic acid derivatives” (Purdue Research Foundation, priority 2000, dated 2001)
